Measured values taken from patent US5622948A, “Pyrrole pyridazine and pyridazinone anti-inflammatory agents” (Syntex (U.S.A.) Inc., priority 1994, dated 1997).
Where “and” joins values, the source holds several entries; their conditions need not be identical. Identical values can stand only once. Like-named read-outs stand apart in the source and are kept apart here.

Key:
COX I [1] = assay: PGE2 production in freshly isolated human monocytes; type: cell-based; conditions: EIA, cells may be expressing COX II constitutively, read-out: COX I IC50, inhibition of PGE2 production
Description: (§1) A summary of activities of Compound (16) against COX I and COX II in cell-free enzyme preparations and whole cells is presented in Table 1. The following abbreviations are used: AA is arachidonic acid, IL-1 is interleukin 1, PMA is phorbol myristate acetate, A23187 is a calcium ionophore (Sigma), BSA is bovine serum albumin and LPS is a lipopolysaccharide (Sigma).
Human monocytes 30 min incubation with Compound (16)
freshly isolated a) 10 min activation, A23187 + PMA
These cells may be expressing COX II
b) 30 min activation, A23187 + PMA
constitutively c) 10 min activation, 20 μM AA
d) 30 min activation, 20 μM AA
EIA determination of PGE2

COX I [2] = target: T1, COX I (Rattus norvegicus, UniProt Q63921); assay: TxB2 production in rat whole blood activated with A23187; type: cell-based; conditions: 15 min incubation; 30 min activation with A23187; EIA determination of TxB2; read-out: COX I IC50, inhibition of TxB2 production
T1 construct: Rat whole blood; from tissue; host or cells: rat whole blood
T1 sequence (Q63921 27-602): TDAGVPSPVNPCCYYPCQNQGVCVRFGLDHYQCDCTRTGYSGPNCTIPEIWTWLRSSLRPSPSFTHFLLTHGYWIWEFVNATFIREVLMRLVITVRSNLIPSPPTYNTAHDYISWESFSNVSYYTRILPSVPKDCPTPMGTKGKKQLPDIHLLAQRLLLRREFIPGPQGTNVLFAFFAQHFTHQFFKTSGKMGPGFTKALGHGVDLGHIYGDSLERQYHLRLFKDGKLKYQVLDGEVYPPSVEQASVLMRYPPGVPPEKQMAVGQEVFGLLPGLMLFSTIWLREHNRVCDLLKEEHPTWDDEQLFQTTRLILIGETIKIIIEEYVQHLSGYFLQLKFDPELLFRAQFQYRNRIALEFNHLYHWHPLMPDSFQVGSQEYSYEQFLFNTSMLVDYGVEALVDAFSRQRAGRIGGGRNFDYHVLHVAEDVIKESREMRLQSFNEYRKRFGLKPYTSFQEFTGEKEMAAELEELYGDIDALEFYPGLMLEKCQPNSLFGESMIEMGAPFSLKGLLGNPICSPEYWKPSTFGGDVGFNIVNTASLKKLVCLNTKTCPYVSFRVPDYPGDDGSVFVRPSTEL
Description: as §1
Rat whole blood 15 min incubation with Compound (16)
(§2) EIA determination of TxB2

[3] = test system: carrageenan-induced paw edema; assay: Carrageenan-induced paw edema in the rat; type: in vivo; conditions: oral
Description: Carrageenan-induced paw edema in the rat has been used as the primary in vivo screen for anti-inflammatory activity of most NSAIDs.
Over a series of assays, in which Compound (16), suspended in SSV, was administered orally to rats 1 hour prior to injection of carrageenan, Compound (16) inhibited carrageenan-induced paw edema (ED30 =1.1±1.0 mg/kg).

[4] = test system: PGE2 levels in the air-pouch exudate; assay: PGE2 in exudate of carrageenan-induced inflammation (air-pouch model) in rats; type: in vivo, rat; conditions: Rattus norvegicus; 0.1-30 mg/kg, relative to vehicle; read-out: IC50, inhibition of PGE2 levels in the exudate
[5] = Pharmacokinetics in rat and monkey; type: in vivo
From the text: The pharmacokinetics of Compound (16) was studied in rat and monkey after intravenous and oral administration in solution (ethanol/polyethylene glycol/water, 1/5/4) or SSV.

[6] = two week range finding toxicity study in cynomolgus monkeys; type: in vivo, cynomolgus monkey; conditions: 10, 30, 100 and 300 mg/kg daily, two weeks
Description: A two week range finding study in cynomolgus monkeys was carried out at daily doses of 10, 30, 100 and 300 mg/kg of Compound (16).

COX I [7] = target: T2, COX I (Homo sapiens, UniProt P23219); assay: TxB2 production in human whole blood activated with ionophore (COX I); conditions: COX I IC50, inhibition of TxB2 production
COX I [8] = target: T2, COX I; assay: thromboxane B2 production in washed human platelets; type: cell-based; design: A 2 Kb fragment containing the coding region of COX I; made in house; host or cells: Sf9 insect cells, baculovirus (cDNA from Oxford Biomedical Research); conditions: EIA, read-out: COX I IC50, inhibition of thromboxane B2 production
Description: as §1
30 min incubation with Compound (16)
b) 10 min activation, 20 μM AA
as §2

T2 sequence (P23219 24-599): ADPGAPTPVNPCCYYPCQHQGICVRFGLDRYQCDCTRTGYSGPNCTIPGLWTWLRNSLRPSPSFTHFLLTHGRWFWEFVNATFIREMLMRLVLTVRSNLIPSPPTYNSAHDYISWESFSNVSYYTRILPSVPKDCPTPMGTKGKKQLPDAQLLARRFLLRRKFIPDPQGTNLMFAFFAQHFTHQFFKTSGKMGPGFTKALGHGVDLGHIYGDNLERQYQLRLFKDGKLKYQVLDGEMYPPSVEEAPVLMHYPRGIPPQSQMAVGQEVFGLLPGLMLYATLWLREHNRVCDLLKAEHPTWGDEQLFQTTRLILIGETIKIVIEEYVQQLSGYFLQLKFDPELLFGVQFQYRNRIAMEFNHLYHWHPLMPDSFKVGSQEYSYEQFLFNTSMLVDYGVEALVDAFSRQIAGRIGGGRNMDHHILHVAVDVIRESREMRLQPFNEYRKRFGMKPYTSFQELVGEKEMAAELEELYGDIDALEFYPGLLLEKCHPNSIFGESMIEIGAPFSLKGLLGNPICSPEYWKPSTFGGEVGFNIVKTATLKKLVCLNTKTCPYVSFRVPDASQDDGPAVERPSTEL

Cc1cc(Cc2ccc(=O)[nH]n2)n(C)c1C(=O)c1ccc(Cl)cc1 [Compound 16, 6-[1,4-dimethyl-5-(4chloro-benzoyl)-1H-pyrrol-2-ylmethyl]-2H-pyridazin-3-one]
IC50 (COX I [1]; 30 min incubation; a) 10 min activation, A23187 + PMA): 5.2 µM | IC50 (COX I [1]; 30 min incubation; b) 30 min activation, A23187 + PMA): 0.31 µM | IC50 (COX I [1]; 30 min incubation; c) 10 min activation, 20 μM AA): 4.6 µM | IC50 (COX I [1]; 30 min incubation; d) 30 min activation, 20 μM AA): > 10 µM | IC50 (COX I [2]): 6 µM and 5 µM and 4 µM | ED30 ([3]; Rattus norvegicus, in SSV, 1 hour prior to carrageenan, series of assays, read-out: ED30, inhibition of carrageenan-induced paw edema): 1.1 ± 1 mg/kg | inhibition of paw edema at the appropriate dose ([3]; maximum amount achievable with NSAIDs): ~ 60% | ED50 [4]: 0.7 to 2 mg/kg | dose proportionality ([5]; 1-300 mg/kg): exhibited dose proportionality over a broad range of doses | half-life ([5]; in vivo, after intravenous dosing): 2 to 3 h | bioavailability ([5]; in vivo, rats and monkeys, oral): 40 to 80% | clinical signs, clinical chemistry, gross pathology or histopathology [6]: No abnormalities were observed | IC50 (COX I [7]; 15 min incubation with compound, 30 min with A23187 (ionophore), RIA determination of TxB2): 5.6 µM | IC50 (COX I [7]; 30 min incubation, 15 min activation, A23187, EIA determination of TxB2): 3 µM | IC50 (COX I [8]; 30 min incubation; a) 10 min activation, A23187 (calcium ionophore)): 2.3 µM | IC50 (COX I [8]; 30 min incubation; b) 10 min activation, 20 μM AA): > 100 µM
